From patent US20170198027A1 (priority 2012, published 2017) come the findings set out here.

Values joined by “and” are separate entries in the source; they are usually repeats but may differ in a detail not shown here. Equal entries are not always repeated. Where two headings read alike, the source gives them in different places.

Data set [1] relates to ApoE ko mice fed with high fat diet. An excerpt: 10 ApoE ko mice were fed with regular chow diet and used as negative control group. 50 ApoE ko mice were fed with high fat diet (35% kcal fat, 1% cholesterol) for 8 weeks, and then the plasma samples were collected for lipid profile measurement before the treatment. 50 ApoE ko mice were assigned into 5 groups based on the fasting overnight plasma TC and HDL level.
19 Mar. 2012 to 6 Apr. 2012: Group the mice based on the TC and HDL level and start the treatment with 3 doses of antibody APOA1 by i.p daily on the weekday (The first dose was administered by iv injection
13 Apr. 2012-14 May 2012: The treatment with antibody APOA1 was changed to i.p injection every two days (Monday, Wednesday, and Friday) per client's instruction.
Antibody products were administrated by intraperitoneal injection every two days (Monday, Wednesday, and Friday). and the positive compound was administered by p.o every day.
5.4. Body weight and blood glucose measurement: The body weight was weighed weekly during the period of treatment. The fasting overnight blood glucose was measured at the end of study by Roche glucometer.
5.5 24 h food intake measurement: 24 hours food intake for each cage was measured weekly
5.6. Plasma lipid profile measurement: About 300 ul of blood sample was collected from the orbital vein for each mouse and centrifuged at 7000 rpm for 5 min at 4° C. and the plasma lipid profile was measured by Roche Modular automatic biochemistry analyzer in DaAn Medical Laboratory
After RAAS antibody products treatment for 8 weeks, all mice were sacrificed. Measured body weight and collected blood sample for each mouse. Weighed liver weight and saved a tiny piece of liver into 4% paraformaldehyde (PFA) fixation solution for further analysis. At same time, take the photos with heart, lung, aortas and two kidneys.
Scanning the glasses slides with the Aperio ScanScope system and analyze with the image proplus software to measure the area of atherosclerotic plaque session. The results were expressed as the percentage of the total aortic surface area covered by lesions. The operation procedure of software was briefly described as follow: Converted the sys version photos into JPG version, then calibrated it and subsequently selected the red regions and then calculate the total area automatically by image proplus software.
(§1) The results were expressed as the Mean±SEM and statistically evaluated by student's t-test.

The subject of another data set is HBV. Briefly: HBV mouse hydrodynamic injection model. In kind it is in vivo, BALB/c mice. As to the method:
3.1.1. From day −7 to day 0, all 5 mice in group 4 were administrated i.p./i.v. with test article daily for 8
3″ 1.2″ On day 0, all groups of mice were hydrodynamicly injected via tail vein with pcDNA3.1/HBV plasmid DNA in a volume of normal saline equal to 8% of a mouse body weight. The plasmid DNA solution for injections was prepared one day before injection and then stored in 4GC until injection”
[…] […] For group 4, the last dosing was carried out 4 hours post HOI.
3.1.4. All mice were submandibularly blec! for plasma preparation according to the design in Table 1.
3.1.5. All mice were sacrificed and c!issectec! to obtain livers (two pieces of left lobe, one piece of middle lobe and one piece of right lobe) according to the regimen in table 1. Isolated livers were snap frozen in liquid nitrogen immec!iately upon collected.
3.2.1.1 Isolate DNA from 50 pi plasma using QIAamp 96 DNA Blood Kit. DNA was eluted with
3.2.12 Run qPCR for HBV DNA quantification.
To eliminate the influence of input HBV plasmid, primers and probe targeting HBV sequence which detect newly replicated HBV DNA and input HBV plasmid DNA and targeting pcDNA3.1 plasmid backbone sequence which only detect the input plasmid DNA were used to do real-time PCR, respectively”
HBV DNA quantity=DNA determined by HBV primer-DNA determined by plasmid primer.
Dilute the plasma 500 fold;
Detect HBsAg level in 50 pl diluted plasma by using HBsAg ELISA kit.
a) Homogenize the liver tissue with Qiagen Tissue Lyser in 10 mM Tris.HCI, 10 mM EDTA, pH7.5.
The total liver DNA was diluted to 10 ng/pl. Use 10 iJI diluted sample to run real-time PCR. HBV DNA quantity=DNA determined by HBV primer-DNA determined by plasmid primer.
a) Load 50 pg DNA for each sample. Run •1.2% agarose gel in 1×TAE.

The subject of data set [2] is New Zealand white rabbit fed with high fat diet. The conditions noted are these: rabbit, in vivo.
Experimental: The treatment groups were given APOAJ via auricular vein once a week Vehicle controls received normal saline via auricular vein once a week. […] The body weight of animal was determined every week and whole blood was drawn every three weeks. The study duration was 19 weeks. At the end of study, all animals were sacrificed. […] Male New Zealand white rabbits were used in this study. […] Blood samples were taken 12 hour after fasting before study to determine the blood lipid parameters. […] Ten to 14 rabbits were in one group. […] First dose was given 1 week before high fat diet. […] 5.2 blood lipid parameters: whole blood was drawn every three weeks. Animals were subject to 12 hour fast before taking blood. […] The upper layer of serum was then separated and examined for total cholesterol (TC), total triglyceride (TG), low density lipoprotein cholesterin (LDL-C), and high density lipoprotein cholesterin (HDL-C). Test reagents were purchased from Shanghai A: The atherosclerosis of aorta (plaque area lj) B: Liver index C: Aorta, liver, heart, arteria carotis, kidney All animals were anesthetized by 20 of ethyl carbamate and then sacrificed with air injection. Abdomen cavity was opened. Whole blood was taken from heart. Heart was harvested along with 7 em of aorta. Then other organs like liver, kidney and arteria carotis were harvested. […] Pictures were taken then. Aorta was cut from aortic arch, opened longitudinally and taken picture. […] One piece of this sample was fixed in fomlalin for further pathological analysis. The weight of liver was determined immediately. Two pieces of specimen were cut from hepatic lobe. One was kept in cryo-preservation tube for lipid analysis and another one was fixed in formalin for further pathological analysis. Animals were fast for 12 hours before taking blood samples via auricular vein. […] Test reagents were purchased from Shanghai Rong Sheng Bio-pharmaceutical Co. Ltd. The aorta was dissected and opened for 7.5 em from aortic arch longitudinally. Pictures were taken and atherosclerosis changing was analyzed.
In data set [3] the test system is Influenza H1N1 A/WSN/33. The format is in vivo, BALB/c mice. The conditions noted are these: oseltamivir 30 mg/kg/day po/bid.
The subject of data set [4] is Influenza H1N1 A/WSN/33. The format is in vivo, BALB/c mice.
For data set [5], the system named is Influenza H1N1 A/WSN/33. In kind it is in vivo, BALB/c mice. This is another data set of the same source.
A further data set deals with db/db mice. How it is done:
Fasting 6 hours and overnight blood glucose were measured. 60 db/db mice were assigned into 5 grouped based on the fasting 6 h blood glucose and body weight. […] 8 db/rn lean mice was used as negative control group […]
5.2. Study duration: This study was conducted in two periods: Period 1: Oct. 13, 2011-Feb. […] 13-Mar. 16, 2012: Test 3 antibody products
Feb. 13, 2012: Start the treatment with 3 antibodies by i.p every two days (Monday, Wednesday, Friday) after 8 weeks washout from previous treatment.
Antibody products were administrated by intraperitoneal injection and the positive compound was mixed into food at the dose 30 rng/kg/day.
5.4. Body weight and blood glucose measurement: Fasting 6 hours body weight and blood glucose concentration were measured by Roche giucometer weekly.
5.5. Plasma insulin measurement: About 30 ul of blood sample was collected from the orbital vein for each mouse and centrifuged 7000 rpm at 4° C. for 5 min. Plasma samples were saved in −70 l-::. The plasma insulin level was measured with EUSA kit (CRYSTAL, cat#90080), 5.6. Plasma lipid profile measurement: The plasma lipid profile were measured by the DaAn Clinic central lab.
5.7. Study taken down: After 14 dose antibody products treatment, all mice were sacrificed. Measure body weight and collect blood sample for each mouse. Measure liver weight and save one piece for pathology study and freeze one piece in liquid nitrogen for further analysis in the future. Save pancreas into 4% paraformaldehyde (PFA) fixation solution for future analysis.
as §1

For the next data set, the system named is HCV. Briefly: HCV replicon dose-dependent curves (figure legends, genotype not stated). The format is cell-based. The conditions noted are these: FIG. 44/45 legends. From the text: FIGS. 44-1 through 44-18.
FIGS. 451 through 45-18-.
FIGS. 44-1 through 44-18. Dose-dependent curves (CC 50 values)
FIG. 45-1 through 45-18 Dose-dependent curves (EC50 values)
(In general: Replicon systems follow genome replication, usually without infectious particles.)

In data set [6] the test system is 4T1-luc breast cancer cells. The following applies: vs vehicle group. How it is done:
The cell suspension was carried to the animal room in an ice box. […] Totally 80 mice were selected and divided into 10 groups. All mice were monitored daily.
Tumor growth status was monitored by both IVIS Lumina II and a digital caliper twice weekly since the day after cell implantation.
For IVIS Lumina II measurement, bioluminescence intensity of primary tumor and metastatic tumor was obtained according to the following procedure:
1. Tumor-bearing mice were \Neighted and intra peritoneally administered luciferin at a dose of 150 mg/kg (10 ml/kg);
2. After 10 min, mice were pre-anesthetized with the mixture of oxygen and isoflurane. […]
3. ROI data was calculated with IVIS Lumina II software and relative ROI was calculated to express the tumor growth status. […]
Tumor size was measured twice a week in two dimensions using a caliper. and the tumor volume (V) was expressed in mm3 using the formula: V=0.5 a×b2 where a and bare the long and short diameters […]
2. […] Body weights were measured and recorded twice weekly.
TGI (tumor growth inhibition, in percent) was calculated according to the following equation: […]
T/C (%) was calculated based on the tumor volume data collected on Day 27.
The difference between the mean values of tumor volume in treatment and vehicle groups was analyzed for significance using one way ANOVA test at each time point after log transformation.

As for `CC(C)c1c(C(=O)Nc2ccccc2)c(-c2ccccc2)c(-c2ccc(F)cc2)n1CC[C@@H](O)C[C@@H](O)CC(=O)O` [Atorvastatin, reference compound], the “arteriosclerosis plaque lesion in the region of thoracic aorta (root plaque area)” value in [1] (APOA1 mid dose and low dose, not significant vs vehicle) is recorded as “trend of reducing the arteriosclerosis plaque lesion”. Besides, the “fasting overnight blood glucose” value in data set [1] (after 8 weeks treatment vs vehicle) is reported as “no effect”. The “atherosclerosis plaque lesion area of aorta” value in data set [1] (after 8 weeks treatment, APOA1 low dose) was “significant reduced the plaque lesion area”. The Liver weight result in [1] (atorvastatin 20 mg/kg, after 8 weeks treatment) was “reduced liver weight and the ratio of liver/body weight significantly”. Also, the “atherosclerosis plaque lesion from the aortic root to right renal artery” value in [1] (atorvastatin p=0.08) is “trend of reducing the atherosclerosis plaque lesion”. The body weight result in data set [1] (vs vehicle group, atorvastatin after 5 weeks treatment) is “significantly reduced the body weight”.

Turning to `C=C1[C@H](CO)[C@@H](O)C[C@@H]1n1cnc2c(=O)[nH]c(N)nc21` [ETV, Entecavir], the “HBV intermediate DNA in livers (real-time PCR)” value in the data set on HBV (ETV day 5, RASS 8 prophylactic treatment day 7) is given as “significantly decreased the HBV intermediate DNA in liver”. In addition, the “ssDNA, HBV replication intermediate DNA in livers (southern blot)” value in the data set on HBV (RASS 8 prophylactic treatment or ETV treatment) was “decreased dramatically”. Moreover, in the data set on HBV (therapeutically treated, from day 3 post HDI to end), the “inhibition to the HBV replication (plasma)” value is “significant inhibition”. The “HBsAg level in plasma (ELISA)” value with HBV (within 5 days post HBV HDI, RASS 8 therapeutic and prophylactic) is recorded as “didn't have significant inhibition”.

For the compound `CC(C)c1c(C(=O)Nc2ccccc2)c(-c2ccccc2)c(-c2ccc(F)cc2)n1CC[C@@H](O)C[C@@H](O)CC(=O)O` [Liptor, reference compound], the “calcification, pathological examination” value in data set [2] is listed as “one animal with calcification”.

For the compound `CCOC(=O)C1=C[C@@H](OC(CC)CC)[C@H](NC(C)=O)[C@@H](N)C1` [Oseltamivir, Oseltamivir phosphate (prodrug)], the survival result in the data set on Influenza H1N1 A/WSN/33 [3] was “survived completely”; in the data set with Influenza H1N1 A/WSN/33 [4] (oseltamivir po/bid), “survived completely”; in the data set on Influenza H1N1 A/WSN/33 [5] (oseltamivir 1 mg/kg orally twice daily for 8 days) it was “survived and 4 out of 5”. For the same compound, the “Mean day to death ± S.D.” value in the data set on Influenza H1N1 A/WSN/33 [4] (H1N1 + Oseltamivir 1 mg/kg, P<0.01 vs vehicle) was above 10 ± 0.0 days. The “body weights dropped by” value in the data set with Influenza H1N1 A/WSN/33 [5] (mouse, in vivo) is listed as below 15%.

As for `CCOC(=O)C1=C[C@@H](OC(CC)CC)[C@H](NC(C)=O)[C@@H](N)C1` [Oseltarnivir], the Survivor/total in the data set with Influenza H1N1 A/WSN/33 [5] (H1N1 + Oseltamivir po BID, dose cell prints 0.2/0.4 ml/mouse) is reported as 4/4. Moreover, the “Mean day to death ± S.D.” value in the data set on Influenza H1N1 A/WSN/33 [5] (H1N1 + Oseltamivir po BID, dose cell prints 0.2/0.4 ml/mouse, P<0.001 vs vehicle) was above 14 ± 0.0 days.

Regarding `CCc1ccc(CCOc2ccc(CC3SC(=O)NC3=O)cc2)nc1` (stereo not drawn) [Pioglitazone], the “dead mice: kidney infection” value with db/db mice (Part 1, Positive group (30 mg/kg/day in food)) was 1. The “dead mice: kidney bleeding” value in the data set on db/db mice (db/db, mouse, in vivo, 32 days) came to 1. In the data set on db/db mice (period 1), the “fasting overnight BG” value was “significantly lower blood glucose”. In addition, in the data set with db/db mice (period 1, AFOD 3 doses after 3 weeks, pioglitazone after 2 weeks), the body weight entry was “significantly increased body weight”. For the same compound, the “blood glucose (fasting 6 h)” value in the data set on db/db mice (period 1, pioglitazone after 1 week, AFOD low dose after 8 doses) was “significantly reduced blood glucose”. In addition, in the data set on db/db mice (period 2), the “blood glucose (fasted 6 h)” value is listed as “significant difference on blood glucose”; the “liver weight and ratio of liver/body weight” value is “effect on reducing the ratio”. For the same compound, the “overnight fasting blood glucose” value with db/db mice (period 2, after 4 weeks treatment) is “significantly reduced the fasting overnight blood glucose level”. Also, in the data set on db/db mice (period 2, after 5 weeks treatment), the plasma triglyceride level result was “significantly lowered”. Moreover, the body weight entry with db/db mice (period 2, vs vehicle group) was “effect on increasing body weight”. The “plasma insulin resistance (HOMA-IR)” value in the data set with db/db mice (period 2, AFOD after 14 doses (p=0.054), pioglitazone after 5 weeks (p=0.051)) is “trend on improving insulin resistance”.

As to `NC(=O)c1ncn([C@@H]2O[C@H](CO)[C@@H](O)[C@H]2O)n1` [Ribavirin], in the data set on HCV, the “inhibition of HCV” value was determined as 50%.

Turning to `Nc1ccn([C@@H]2O[C@H](CO)[C@@H](O)C2(F)F)c(=O)n1` [gemcitabine, reference compound], the “one-way ANOVA analysis on tumor volume changes” value in [6] (Day 20) is listed as “*′**”. For the same compound, the tumor volume entry in [6] (gemcitabine since day 13) is given as “significant tumor volume reduction”.

Regarding APOA 1, the “Wounded (number of mice)” value in data set [1] (APOA 1 high dose group) and in data set [1] (APOA 1 mid dose group) was 1 throughout. Moreover, the “Dead (number of mice)” value worked out at 2 in data set [1] (APOA 1 high dose group, reason: Kidney infection & i.v injection) and 1 in [1] (APOA 1 mid dose group, reason: Blood collection).
